Square brackets hold non-standard residues; d marks the D form. Peptide text beside a SMILES is read from it. * marks the point of attachment. Dolaproine = CO[C@@H]([C@@H]1CCCN1)[C@@H](C)C(=O)O; Dil = CC[C@H](C)[C@H](NC)[C@@H](CC(=O)O)OC; X1 = C[C@@H](N*)[C@@H](O)c1ccccc1; NMeV = CN[C@H](C(=O)O)C(C)C
Columns and labels:
[1] = tested on: C16orf54 expressing Sarcoma line 1; experiment: Cell viability assay, C16orf54 expressing sarcoma line 1; format: cell-based, murine; settings: 1000 cells/well, 72 hours
Description: (§1) Murine sarcoma cell lines that express C16orf54 were prepared by virus infection of sarcoma cell lines. A PCR-amplified C16orf54 gene was cloned into a murine stem cell virus expression vector with a neomycin resistance gene and sequenced to confirm the identity. To prepare virus particles, HEK 293t cells with retroviral packaging proteins were transfected, in the presence of transfection reagent FUGENE HD (Roche), with the retroviral expression vector containing C16orf54. The virus particles collected from the supernatant of the culture media 48 hours after transfection were used to infect the sarcoma cells. After G418 selection, stable transfectants were pooled and then cloned by limiting dilution. Clones were then picked and expanded in the presence of antibiotics. Clones with the highest expression level of C16orf54 as measured by flow cytometry were expanded and banked. These cell lines were then used to immunize the syngeneic mice for antibody production and in the binding assays for antibody selection as follows.
(§2) The anti-tumor activity of unconjugated anti-C16orf54 antibodies and anti-C16orf54 antibodies that were directly conjugated with […] (ADCs) was determined in a cell viability assay using several C16orf54-expressing cell lines. Cells were plated at 1000 cells/well and incubated in the presence of antibodies or ADCs for 72 hours.

[2] = tested on: C16orf54 expressing sarcoma line 2; experiment: Cell viability assay, C16orf54 expressing sarcoma line 2; format: cell-based, murine; settings: 1000 cells/well, 72 hours
Description: as §1, §2

CC[C@H](C)[C@@H]([C@@H](CC(=O)N1CCC[C@H]1[C@H](OC)[C@@H](C)C(=O)N[C@H](C)[C@@H](O)c1ccccc1)OC)N(C)C(=O)[C@@H](NC(=O)[C@@H](NC)C(C)C)C(C)C [MMAE, monomethylauristatin E] (H-[NMeV]V[Dil][Dolaproine]-X1)
IC50 [1]: 0.4 nM | IC50 [2]: 4.1 nM
